These results are taken from ChEMBL document CHEMBL2380218, “A facile chemo-, regio- and stereoselective synthesis and cholinesterase inhibitory activity of spirooxindole-pyrrolizine-piperidine hybrids” (Bioorg Med Chem Lett, 2013).

What is called IC50 is the concentration that inhibits the measured activity by half. A lower IC50 goes with inhibition by little substance.

One experiment has as its target Acetylcholinesterase (Homo sapiens, UniProt P22303). Put plainly: Inhibition of AChE (unknown origin) using acetylthiocholine iodide as substrate incubated for 15 mins prior to substrate addition measured after 30 mins by Ellman's method. (DTNB colorimetry detects thiols as they appear.)
The target of a further experiment is Cholinesterase (Equus caballus, UniProt P81908). Nature of the experiment: Inhibition of equine serum BuChE using S-butyrylthiocholine chloride as substrate incubated for 15 mins prior to substrate addition measured after 30 mins by Ellman's method.
Cholinesterase, sequence (P81908 whole entry): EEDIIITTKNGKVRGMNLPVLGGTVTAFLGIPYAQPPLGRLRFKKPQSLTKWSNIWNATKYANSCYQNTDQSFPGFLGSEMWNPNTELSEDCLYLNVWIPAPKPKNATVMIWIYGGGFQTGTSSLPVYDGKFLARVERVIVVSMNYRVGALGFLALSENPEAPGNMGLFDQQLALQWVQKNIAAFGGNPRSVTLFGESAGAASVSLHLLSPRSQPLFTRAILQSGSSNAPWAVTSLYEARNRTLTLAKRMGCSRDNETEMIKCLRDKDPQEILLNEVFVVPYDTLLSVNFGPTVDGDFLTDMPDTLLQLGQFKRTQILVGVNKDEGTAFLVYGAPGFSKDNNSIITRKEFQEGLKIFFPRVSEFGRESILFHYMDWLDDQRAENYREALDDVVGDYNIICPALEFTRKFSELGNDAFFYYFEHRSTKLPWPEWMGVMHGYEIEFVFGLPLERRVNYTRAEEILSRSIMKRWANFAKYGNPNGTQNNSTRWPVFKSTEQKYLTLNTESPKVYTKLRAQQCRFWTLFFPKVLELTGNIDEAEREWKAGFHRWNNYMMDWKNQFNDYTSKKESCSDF

Acetylcholinesterase, sequence (P22303 whole entry): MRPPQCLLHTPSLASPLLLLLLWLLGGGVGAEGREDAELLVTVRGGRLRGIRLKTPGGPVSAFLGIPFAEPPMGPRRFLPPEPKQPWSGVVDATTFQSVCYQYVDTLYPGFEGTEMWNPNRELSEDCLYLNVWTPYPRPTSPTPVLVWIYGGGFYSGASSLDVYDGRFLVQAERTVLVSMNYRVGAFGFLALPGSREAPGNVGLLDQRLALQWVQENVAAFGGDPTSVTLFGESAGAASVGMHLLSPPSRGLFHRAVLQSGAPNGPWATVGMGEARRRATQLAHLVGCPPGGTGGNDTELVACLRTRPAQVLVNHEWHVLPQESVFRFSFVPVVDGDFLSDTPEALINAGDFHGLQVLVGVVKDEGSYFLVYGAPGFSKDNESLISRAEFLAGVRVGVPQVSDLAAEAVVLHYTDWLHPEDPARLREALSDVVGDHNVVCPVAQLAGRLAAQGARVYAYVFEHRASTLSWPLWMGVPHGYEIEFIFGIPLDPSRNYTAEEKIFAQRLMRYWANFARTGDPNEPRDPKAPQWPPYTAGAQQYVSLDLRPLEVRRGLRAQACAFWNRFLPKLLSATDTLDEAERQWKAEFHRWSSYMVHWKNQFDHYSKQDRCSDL

On to `O=C1/C(=C/c2cccc3ccccc23)CN(C(=O)[C@H]2C[C@H]3CCCN3[C@]23C(=O)Nc2cc(Cl)ccc23)C/C1=C\c1cccc2ccccc12`, for which the IC50 is 5.81 µM against Acetylcholinesterase and 9.65 µM against Cholinesterase.
Regarding `O=C1/C(=C/c2ccccc2)CN(C(=O)[C@H]2C[C@H]3CCCN3[C@]23C(=O)Nc2cc(Cl)ccc23)C/C1=C\c1ccccc1`, the IC50 at Acetylcholinesterase was 15.7 µM; against Cholinesterase it was 15.4 µM.
Take `Cc1ccccc1/C=C1\CN(C(=O)[C@H]2C[C@H]3CCCN3[C@]23C(=O)Nc2cc(Cl)ccc23)C/C(=C\c2ccccc2C)C1=O`: the IC50 against Acetylcholinesterase was 11.2 µM; against Cholinesterase it was 15.1 µM.
In the same order, the values of `COc1ccccc1/C=C1\CN(C(=O)[C@H]2C[C@H]3CCCN3[C@]23C(=O)Nc2cc(Cl)ccc23)C/C(=C\c2ccccc2OC)C1=O` are 14.5 µM and 7.82 µM.
In the same order, the values of `O=C1/C(=C/c2ccccc2Cl)CN(C(=O)[C@H]2C[C@H]3CCCN3[C@]23C(=O)Nc2cc(Cl)ccc23)C/C1=C\c1ccccc1Cl` are 5.08 µM and 17.4 µM.
Take `O=C1/C(=C/c2ccccc2F)CN(C(=O)[C@H]2C[C@H]3CCCN3[C@]23C(=O)Nc2cc(Cl)ccc23)C/C1=C\c1ccccc1F`: the IC50 was determined as 29.5 µM at Acetylcholinesterase and 3.13 µM on Cholinesterase.
As to `O=C1/C(=C/c2cccc([N+](=O)[O-])c2)CN(C(=O)[C@H]2C[C@H]3CCCN3[C@]23C(=O)Nc2cc(Cl)ccc23)C/C1=C\c1cccc([N+](=O)[O-])c1`, the IC50 against Acetylcholinesterase was found to be 4.28 µM; against Cholinesterase, 17.2 µM.
In the case of `O=C1/C(=C/c2ccc(Cl)cc2Cl)CN(C(=O)[C@H]2C[C@H]3CCCN3[C@]23C(=O)Nc2cc(Cl)ccc23)C/C1=C\c1ccc(Cl)cc1Cl`, the IC50 against Acetylcholinesterase worked out at 3.33 µM; on Cholinesterase, 20.1 µM.
In the case of `Cc1ccc(/C=C2\CN(C(=O)[C@H]3C[C@H]4CCCN4[C@]34C(=O)Nc3cc(Cl)ccc34)C/C(=C\c3ccc(C)cc3)C2=O)cc1`, the IC50 against Acetylcholinesterase is 7.6 µM; at Cholinesterase, 22.2 µM.
For the compound `O=C1/C(=C/c2ccc(Cl)cc2)CN(C(=O)[C@H]2C[C@H]3CCCN3[C@]23C(=O)Nc2cc(Cl)ccc23)C/C1=C\c1ccc(Cl)cc1`, the values for the IC50 on Acetylcholinesterase and at Cholinesterase were 3.36 µM and 28.2 µM, respectively.
Regarding `O=C1/C(=C/c2ccc(F)cc2)CN(C(=O)[C@H]2C[C@H]3CCCN3[C@]23C(=O)Nc2cc(Cl)ccc23)C/C1=C\c1ccc(F)cc1`, the figures for the IC50 against Acetylcholinesterase and against Cholinesterase were 22.3 µM and 3.64 µM, respectively.
